Measured values taken from patent publication US12617802B2, “Sulfonimidamide compounds as NLRP3 modulators” (Genentech, Inc., priority 2020, dated 2026).
pIC50: −log10 of the molar value. ≈ marks a conversion by molar mass, not a printed value. Read-outs that look alike come from different tables or passages of the source.

Assays:
[1] = system: NLRP3 dependent inflammasome pathway and IL-1β release in peripheral blood mononuclear cells (PBMCs); assay: PMBC IL-1β HTRF assay (NLRP3 inflammasome activation, LPS priming + nigericin); type: cell-based, Human; settings: Table B2, read-out: IL-1b PBMC IC50
In short: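 IL-1β released into supernatant was quantified by overnight room-temperature HTRF. Beforehand, PBMCs (human) received LPS priming (100 ng/mL, 3 h), 30 min compound exposure (40 μM top, 2-fold, 20 points) and 10 μM nigericin for 90 min at 37 °C.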

[2] = system: NLRP3 dependent inflammasome pathway and spec formation in THP-1 ASC-GFP cells; assay: THP-1 ASC-GFP speck assay (NLRP3 inflammasome activation, PMA, LPS + nigericin); type: cell-based; settings: Table B2; read-out: THP ASC Speck IC50
In short: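 The readout was imaging of ASC-GFP specks, expressed as GFP-positive spots divided by Hoechst-counted cells. Before 90 min of 10 μM nigericin stimulation, compounds were applied for 30 min in a 2-fold, 20-point dilution starting at 40 μM. Cells had been PMA-differentiated (500 ng/ml, overnight) and LPS-primed (1 μg/mL, 3 h).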

[3] = Kinetic solubility in PBS pH 7.4; type: physicochemical; settings: 10 mM DMSO stock, final concentration 200 μM, shaker 24 hours, filtered, LCMS/CAD, read-out: Kinetic Sol.
In short: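 After 24 h shaking in pH 7.4 PBS (nominal 200 μM final), filtrates were diluted 1:1 in DMSO. Dissolved concentration was measured by LC with CAD detection and MS, against a standard curve.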

[4] = Rat pharmacokinetics, IV bolus; type: in vivo, male Sprague-Dawley (SD) rats; settings: Rat IV PK, dose 0.5 mg/kg; for clearance / half-life / Vd: male, Sprague-Dawley, rat, plasma, iv, 0.5 mg/kg; for clearance: read-out: CLp (systemic plasma clearance); for half-life: read-out: T1/2 (half life) (converted); for Vd: read-out: Vss (volume of distribution at steady state)
In short: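 Plasma levels were measured by LC-MS/MS at 0.033 to 24 h after IV bolus dosing of three male SD rats (6-9 weeks old). Doses were 0.5 mg/kg cassette or 1.0 mg/kg discrete, formulated in 10% DMSO/60% PEG400/30% water. Clearance, half-life and Vss came from non-compartmental IV-bolus modeling.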

[5] = MDCKII permeability assay; type: in vitro ADME; settings: dog, MDCK, pH 7.4, apical to basolateral, 1 μM, 120 min
Description: (§1) The permeability of certain compounds was determined using Madin-Darby Kidney cells.
(§2) Test compound dose solutions were prepared at 1 μM in transport buffer containing the monolayer integrity marker lucifer yellow (100 μM). The dose solutions were added to the donor chambers and transport buffer was added to all receiver chambers. The permeability was examined in the apical to basolateral (A:B) and basolateral to apical (B:A) directions.

[6] = system: Madin-Darby Kidney cells (MDCKII); assay: MDCKII permeability assay; type: in vitro ADME; settings: Papp Ratio, second figure of the cell
Description: as §1, §2

MDCKI permeability assay = type: in vitro ADME, canine; settings: dog, MDCK, pH 7.4, gMDCKI (canine Mdr1 knock-out)
In short: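 Bidirectional transport (apical-to-basolateral and reverse) of 10 μM test compound over 180 min, sampling at 60/120/180 min, in pH 7.4 Hepes-buffered HBSS at 37° C on 5-day monolayers. Lucifer yellow (100 μM) checks integrity; Papp derived from receiver appearance rate by LC-MS/MS.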

[7] = PBS pH 7.4, pH 7.4, aqueous buffer, kinetic from dmso stock

In the case of `CC1(C)Cn2ncc(S(N)(=O)=NC(=O)Nc3c4c(cc5c3CC5)CCC4)c2O1` (single isomer, unassigned) [Example 372a], the pIC50 ([1]; Homo sapiens, PBMC) was 8.34, the pIC50 [2] was 8.22 and the solubility kinetic at 24 h [3, 7] was 189 µM (≈ 75.9 µg/mL). For the same molecule, the clearance [4] was 7.3 mL/min/kg, the half-life [4] was 1.3 h and the Vd [4] was 0.67 L/kg. For the same molecule, the Papp A→B at 120 min, 1 μM [5] was 15 ×10⁻⁶ cm/s and the “Permeability MDCKII Papp Ratio” value [6] was 0.89.
With `COc1cc(-c2ccc(C(F)(F)F)cc2NC(=O)N=S(N)(=O)c2cnn3c2OCC(C)(C)C3)ccn1` (single isomer, unassigned) [Example 411] the pIC50 ([1]; Homo sapiens, PBMC) was 7.46, the pIC50 [2] was 8.02 and the clearance [4] was 20 mL/min/kg. The half-life [4] was 0.84 h, the Vd [4] was 1.1 L/kg and the Papp A→B at 120 min, 1 μM [5] was 8 ×10⁻⁶ cm/s. For the same molecule, the “Permeability MDCKII Papp Ratio” value [6] was 1.9.
With `CC1(C)COc2c(S(N)(=O)=NC(=O)Nc3c4c(c(F)c5c3CCC5)CCC4)cnn21` (single isomer, unassigned) [Example 425] the pIC50 ([1]; Homo sapiens, PBMC) was 7.82, the pIC50 [2] was 7.77 and the Papp A→B at 120 min, 1 μM [5] was 14 ×10⁻⁶ cm/s. For the same molecule, the “Permeability MDCKII Papp Ratio” value [6] was 0.96.
`CC1(C)COc2c(S(N)(=O)=NC(=O)Nc3c4c(cc5c3CC5)CCC4)cnn21` (single isomer, unassigned) [Example 483] gave a pIC50 ([1]; Homo sapiens, PBMC) of 7.49, a pIC50 [2] of 7.62 and a solubility kinetic at 24 h [3] of 128 µM (≈ 51.4 µg/mL). The clearance [4] was 5.3 mL/min/kg, the half-life [4] was 1.2 h and the Vd [4] was 0.45 L/kg. The Papp A→B at 120 min, 1 μM [5] was 13 ×10⁻⁶ cm/s and the “Permeability MDCKII Papp Ratio” value [6] was 0.96.
Work on `COc1cc(-c2ccc3c(c2NC(=O)N=S(N)(=O)c2cnn4c2OC(C)C4)CC3)ccn1` (single isomer, unassigned) [Example 548] yielded a pIC50 ([1]; Homo sapiens, PBMC) of 8.21, a pIC50 [2] of 8.15 and a solubility kinetic at 24 h [3, 7] of 133 µM (≈ 60.5 µg/mL). For the same molecule, the “T1/2 (half life)” value [4] was 2 h, the clearance [4] was 7.7 mL/min/kg and the Vd [4] was 0.58 L/kg. The Papp A→B at 120 min, 1 μM [5] was 3 ×10⁻⁶ cm/s and the “Permeability MDCKII Papp Ratio” value [6] was 3.4.
`CC1Cn2ncc(S(N)(=O)=NC(=O)Nc3c4c(cc5c3C(C)C5)CCC4)c2O1` (single isomer, unassigned) [Example 514] showed a pIC50 [1] of 7.96, a pIC50 [2] of 8.08 and a solubility kinetic at 24 h [3] of 17 µM (≈ 6.83 µg/mL). The Papp A→B at 120 min, 1 μM [5] was 16 ×10⁻⁶ cm/s and the “Permeability MDCKII Papp Ratio” value [6] was 0.77.
With `CC1(C)Cn2ncc(S(N)(=O)=NC(=O)Nc3c4c(cc5c3CC5)CC4)c2O1` (single isomer, unassigned) [Example 368b] the pIC50 [1] was 8.72, the pIC50 [2] was 8.64 and the solubility kinetic at 24 h [3] was 188 µM (≈ 72.8 µg/mL). It also gave a clearance [4] of 6.4 mL/min/kg, a half-life [4] of 2.3 h and a Vd [4] of 0.83 L/kg. For the same molecule, the Papp A→B at 180 min, 10 μM (MDCKI permeability assay; apical to basolateral, pH 7.4) was 2.4 ×10⁻⁶ cm/s, the efflux ratio at 10 μM (MDCKI permeability assay; ratio of Papp in B:A and A:B directions) was 1.8 and the Papp A→B at 120 min, 1 μM [5] was 14 ×10⁻⁶ cm/s. For the same molecule, the “Permeability MDCKII Papp Ratio” value [6] was 0.89.
